Reference: patent US8497370B2, “Processes for preparing amine salts of sildenafil-analogues and use thereof” (Kaohsiung Medical University, priority 2010, dated 2013)

Key:
Assay type in all cases: in vivo
[1] = test system: male Wistar rats treated with MCT; assay: Monocrotaline (MCT)-induced pulmonary arterial hypertension in rats, pulmonary artery blood pressure; details: for PABP: MCT (60 mg, intracutaneously)-treated male Wistar rats, 2.5 mg/kg/day p.o., MCT alone 25 ± 2.3, control 11 ± 1.4; for effect on pulmonary artery blood pressure (PABP), in words: MCT-treated male Wistar rats, 2.5 mg/kg orally every day
Source text: 2. The Monocrotaline (MCT)-Treated Rats Show the Decreased Pulmonary Aterial Hypertension
Pulmonary aterial hypertension in MCT-treated rats is caused on day 21 after the intracutaneously injection.

TGF-β = assay: Bleomycin (BM)-induced lung fibrosis in mice, TGF-β expression in tracheal irrigation solution by EIA; details: 60 mg/kg BM inhalation, *P < 0.05 vs control group
Protocol: 3. Sildenafil-Simvastatinic Acid Complex Salts Inhibit the Lung Fibrosis in Mice Induced by Bleomycin (BM) Mediated Via TGF-β Expression in Lung The increased amount of the synthetic collagen and the generation of the macrophage in alveolus may facilitate the formulation of transforming growth factor beta (TGF-β), and the expression of TGF-β is looked as a biomarker of the lung fibrosis. The simvastatin (5 mg/kg) and Sildenafil-Simvastatinic acid complex salts (2.5 mg/kg) are orally administered to the mice for inhibiting the lung fibrosis induced by TGF-β expression in tracheal irrigation solution that resulted from 60 mg/kg BM inhalation (Table 4). The state of the TGF-β expression in the irrigation solution is measured by the enzyme immunoassay (EIA).

C57BL/6J mice = assay: The lipid-lowering effect in C57BL/6J mice (high-fat diet); details: HFD C57BL/6J mice, after 21 days, six mice per group
Protocol: 1. The Lipid-Lowering Effect in C57BL/6J Mice
8-week C57BL/6J mice are divided into standard diet (STD) group and the high-fat diet (HFD) group. In the HFD group, the Simvastatin (5 mg/kg), Sildenafil-Atorvastatinic acid complex salt, Sildenafil-Rosuvastatinic acid complex salt, Sildenafil-Simvastatinic acid complex salt (2.5 mg/kg) are separately administered orally. After 21 days, the amounts (mg/d1) of the triglyceride (TG), the total cholesterol (Tot.-C), the high density lipoprotein cholesterol (HDL-C), and the low density lipoprotein cholesterol (LDL-C) of six mice for each group are measured as shown in Tables 2.

Row | Compound | PABP [1] | effect on pulmonary artery blood pressure (PABP), in words [1] | Changed amount of the lung TGF-β (TGF-β; 5 mg/kg orally) | HDL-C (C57BL/6J mice; 5 mg/kg orally) | LDL-C (C57BL/6J mice; 5 mg/kg orally) | TG (C57BL/6J mice; 5 mg/kg orally) | Tot.-C (C57BL/6J mice; 5 mg/kg orally) | HDL-C (C57BL/6J mice; 2.5 mg/kg orally) | LDL-C (C57BL/6J mice; 2.5 mg/kg orally) | TG (C57BL/6J mice; 2.5 mg/kg orally) | Tot.-C (C57BL/6J mice; 2.5 mg/kg orally) | Changed amount of the lung TGF-β (TGF-β; 2.5 mg/kg orally)
1 | Sildenafil-γ-Polyglutamate complex | 11 ± 0.8 mmHg | decreasing the pulmonary artery blood pressure |  |  |  |  |  |  |  |  |  | 
2 | CCC(C)(C)C(=O)O[C@H]1C[C@@H](C)C=C2C=C[C@H](C)[C@H](CC[C@@H]3C[C@@H](O)CC(=O)O3)[C@H]21 [Simvastatin, reference compound] |  |  | 40 ± 4.3%* | 103.18 ± 2.5 mg/d1 | 15.3 ± 1.3 mg/d1 | 82.67 ± 6.3 mg/d1 | 133.67 ± 4.3 mg/d1 |  |  |  |  | 
3 | Sildenafil-Rosuvastatinic acid complex salt |  |  |  |  |  |  |  | 103.4 ± 1.5 mg/d1 | 15.2 ± 1.7 mg/d1 | 83.2 ± 5.3 mg/d1 | 131.7 ± 1.6 mg/d1 | 
4 | Sildenafil-Atorvastatinic acid complex salt |  |  |  |  |  |  |  | 97.6 ± 2.8 mg/d1 | 16.8 ± 1.8 mg/d1 | 79.2 ± 4.6 mg/d1 | 130.7 ± 1.7 mg/d1 | 
5 | Sildenafil-Simvastatinic acid complex salt | 12 ± 1.5 mmHg | decreasing the pulmonary artery blood pressure |  |  |  |  |  | 102.4 ± 2.3 mg/d1 | 17.3 ± 1.4 mg/d1 | 81.2 ± 4.4 mg/d1 | 129.7 ± 1.4 mg/d1 | 43 ± 1.8%*
